Experimental data from patent publication US12084399B2, “Crystalline tranilast salts and their pharmaceutical use” (NUFORMIX TECHNOLOGIES LIMITED, priority 2018, dated 2024).
≈ marks a conversion by molar mass, not a printed value.

Legend:
[1] = Dissolution study in 5% aqueous dextrose solution; assay type: physicochemical; details: saline or isotonic, thermodynamic from solid, 50 ml 5% aqueous dextrose solution
Protocol: As this invention also relates to a method of preparing a liquid pharmaceutical formulation of tranilast for delivery, for example, as an injectable formulation, a liquid oral formulation or a nebulised inhaled formulation a study was also carried out to explore the dissolution rates of the crystalline tranilast salts of this invention in a suitable media. As liquid pharmaceutical formulations are usually made up in-situ at the bedside for immediate delivery it is important that these new solid forms of tranilast dissolve almost instantaneously for them to be suitable for use in a liquid pharmaceutical formulation. Whilst liquid oral formulations could be achieved by simply dissolving a drug in water prior to administration (the high aqueous solubility of the new crystalline tranilast salts would make this possible), a liquid formulation for inhaled or intravenous delivery requires the dissolution media to be isotonic. This is often achieved by using saline (0.9% sodium chloride in water) as the liquid formulation media. […] An alternative isotonic media suitable for preparing liquid pharmaceutical formulations for inhaled or intravenous administration is 5% aqueous dextrose solution. […] The results of this study can be seen in FIG. 41.

[2] = carboxylic acid group of tranilast; cited from earlier work
[3] = cited from earlier work
[4] = 600 mg daily dosage, inter-patient variation; cited from earlier work
[5] = dissolved or stored in solution, UV exposure; cited from earlier work
[6] = exposed to light, listed as pure crystalline tranilast; cited from earlier work

COc1ccc(/C=C/C(=O)Nc2ccccc2C(=O)O)cc1OC [Tranilast, 2-[[3-(3,4-dimethoxyphenyl)-1-oxo-2-propenyl]amino] benzoic acid]
solubility at 1 minute ([1]; 1 minute): 1 µg/mL (≈ 3.05 µM)
solubility at 1 hour ([1]; 1 hour): 60 µg/mL (≈ 183 µM)
pKa [2]: 3.25
solubility in pH 1.2 buffer solution ([3]; pH 1.2 buffer solution): 0.7 μg/ml
solubility in water ([3]; water): 14.5 µg/mL (≈ 44.3 µM)
Solubility ([3]; water, comparative literature value in Table 16): 14.5 µg/mL (≈ 44.3 µM)
plasma concentrations of the drug [4]: 30 to 300 µM
photochemical stability in solution (in words) [5]: photochemically unstable
solid-state photostability (in words) [6]: photostable
